Reference: patent US20230146395A1, “Substituted Pyrimidines and Uses Thereof” (Verge Analytics, Inc., priority 2020, published 2023)
Structures can show the parent of a compound that is named as a salt.

Target: T1, Full length human recombinant PIKFYVE (Homo sapiens, UniProt Q9Y2I7)
T1 construct: Full length human recombinant PIKFYVE; purchased Carna Biosciences (Kobe, Japan); host or cells: baculovirus expression system
Experiment: Inhibition of PIKfyve (microfluidic electrophoresis kinase assay, PI3P/PS substrate)
Assay type: biochemical
Settings: 12 concentrations
Experimental: Full length human recombinant PIKFYVE expressed in baculovirus expression system as N-terminal GST-fusion protein (265 kDa) was obtained from Carna Biosciences (Kobe, Japan). The kinase substrate was prepared by mixing and sonicating fluorescently-labeled phosphatidylinositol 3-phosphate (PI3P) with phospho-L-serine (PS) at a 1:10 ratio in 50 mM HEPES buffer pH 7.5.
The kinase reactions were assembled in 384-well plates (Greiner) in a total volume of […] as follows. Kinase protein was pre-diluted in an assay buffer comprising 25 mM HEPES, pH 7.5, 1 mM DTT, 2.5 mM MgCl2, and 2.5 mM MnCl2, and 0.005% Triton X-100, and dispensed into a 384-well plate (10 μL per well). Test compounds were serially pre-diluted in DMSO and added to the protein samples by acoustic dispensing (Labcyte Echo). The concentration of DMSO was equalized to 1% in all samples. All test compounds were tested at 12 concentrations. Apilimod was used as a reference compound and was tested in identical manner in each assay plate. Control samples (0%-inhibition, in the absence of inhibitor, DMSO only) and 100%-inhibition (in the absence of enzyme) were assembled in replicates of four and were used to calculate %-inhibition in the presence of compounds. The reactions were initiated by addition of 10 μL of 2×PI3P/PS substrate supplemented with ATP. The final concentration of enzyme was 2 nM, the final concentration of ATP was […], and the final concentration of PI3P/PS substrate was 1 μM (PI3P). The kinase reactions were allowed to proceed for 3 h at room temperature. Following incubation, the reactions were quenched by addition of […] of termination buffer (100 mM HEPES, pH 7.5, 0.01% Triton X-100, 20 mM EDTA). Terminated plates were analyzed on a microfluidic electrophoresis instrument (Caliper LabChip® 3000, Caliper Life Sciences/Perkin Elmer). The change in the relative fluorescence intensity of the PI(3)P substrate and PI(3,5)P product peaks was measured. The activity in each test sample was determined as the product to sum ratio (PSR): P/(S+P), where P is the peak height of the product, and S is the peak height of the substrate. Percent inhibition (Pinh) was determined using the following equation:
Pinh=(PSR0% inh−PSRcompound)/(PSR0% inh−PSR100% inh)*100
in which PSRcompound is the product/sum ratio in the presence of compound, PSR0% inh is the product/sum ratio in the absence of compound, and the PSR100% inh is the product/sum ratio in the absence of the enzyme.

T1 sequence (Q9Y2I7 whole entry): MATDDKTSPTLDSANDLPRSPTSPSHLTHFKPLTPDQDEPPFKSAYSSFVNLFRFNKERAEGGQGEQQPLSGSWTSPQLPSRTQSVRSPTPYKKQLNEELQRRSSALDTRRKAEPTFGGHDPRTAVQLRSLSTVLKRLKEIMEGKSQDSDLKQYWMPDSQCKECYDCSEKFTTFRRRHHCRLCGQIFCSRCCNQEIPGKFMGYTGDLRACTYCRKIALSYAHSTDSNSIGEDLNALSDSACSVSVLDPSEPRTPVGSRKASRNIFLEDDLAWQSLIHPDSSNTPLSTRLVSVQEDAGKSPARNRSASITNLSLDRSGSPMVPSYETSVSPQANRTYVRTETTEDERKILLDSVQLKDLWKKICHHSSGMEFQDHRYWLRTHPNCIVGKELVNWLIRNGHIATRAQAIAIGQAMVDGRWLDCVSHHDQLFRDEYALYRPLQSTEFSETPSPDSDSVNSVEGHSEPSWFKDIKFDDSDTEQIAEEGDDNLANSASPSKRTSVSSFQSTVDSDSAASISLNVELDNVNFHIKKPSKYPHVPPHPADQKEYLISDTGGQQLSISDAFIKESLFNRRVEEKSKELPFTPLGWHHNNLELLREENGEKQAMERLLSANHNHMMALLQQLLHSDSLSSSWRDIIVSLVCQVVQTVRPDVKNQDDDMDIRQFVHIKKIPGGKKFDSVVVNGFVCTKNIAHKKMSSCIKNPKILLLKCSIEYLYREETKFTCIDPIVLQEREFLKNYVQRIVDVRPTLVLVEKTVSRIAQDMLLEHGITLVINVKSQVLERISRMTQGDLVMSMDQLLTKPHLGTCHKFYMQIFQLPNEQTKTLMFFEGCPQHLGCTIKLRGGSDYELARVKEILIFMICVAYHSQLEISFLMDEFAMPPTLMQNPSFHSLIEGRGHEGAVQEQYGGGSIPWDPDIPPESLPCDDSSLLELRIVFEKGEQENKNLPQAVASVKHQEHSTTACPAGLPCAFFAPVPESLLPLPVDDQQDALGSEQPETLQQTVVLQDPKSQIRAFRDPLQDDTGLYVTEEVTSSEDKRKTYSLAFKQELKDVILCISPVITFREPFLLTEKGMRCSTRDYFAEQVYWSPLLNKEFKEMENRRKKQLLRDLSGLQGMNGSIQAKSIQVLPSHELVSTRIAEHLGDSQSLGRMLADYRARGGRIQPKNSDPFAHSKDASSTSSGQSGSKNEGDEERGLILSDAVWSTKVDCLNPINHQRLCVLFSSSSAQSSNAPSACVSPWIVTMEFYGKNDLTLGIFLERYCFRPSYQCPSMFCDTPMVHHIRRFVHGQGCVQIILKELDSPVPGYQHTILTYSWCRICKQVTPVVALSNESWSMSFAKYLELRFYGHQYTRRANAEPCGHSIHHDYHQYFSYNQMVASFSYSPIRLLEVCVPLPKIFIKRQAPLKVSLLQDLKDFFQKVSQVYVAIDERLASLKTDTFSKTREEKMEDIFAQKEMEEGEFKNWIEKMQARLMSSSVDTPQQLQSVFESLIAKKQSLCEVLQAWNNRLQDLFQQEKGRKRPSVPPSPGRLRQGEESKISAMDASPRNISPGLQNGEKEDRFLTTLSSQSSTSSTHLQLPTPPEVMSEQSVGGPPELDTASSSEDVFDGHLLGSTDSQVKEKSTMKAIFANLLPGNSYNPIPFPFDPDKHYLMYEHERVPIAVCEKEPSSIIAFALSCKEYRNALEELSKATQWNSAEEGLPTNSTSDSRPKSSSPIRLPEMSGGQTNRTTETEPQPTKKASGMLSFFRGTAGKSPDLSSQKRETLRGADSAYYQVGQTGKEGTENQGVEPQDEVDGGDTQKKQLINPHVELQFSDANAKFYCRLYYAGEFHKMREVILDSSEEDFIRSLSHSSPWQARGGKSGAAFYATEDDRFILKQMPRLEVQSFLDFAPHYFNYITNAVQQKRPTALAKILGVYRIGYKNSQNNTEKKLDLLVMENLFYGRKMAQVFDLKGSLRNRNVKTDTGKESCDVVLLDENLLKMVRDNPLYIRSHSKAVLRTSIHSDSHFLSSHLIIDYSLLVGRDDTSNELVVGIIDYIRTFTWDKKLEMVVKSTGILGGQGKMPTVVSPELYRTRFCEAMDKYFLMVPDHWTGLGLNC

IC50 [µM]	Structure (SMILES)
0.103	Cc1cccc(-c2cnn(-c3nc(N4CCOCC4)c4oc(C(=O)NCCS(C)(=O)=O)cc4n3)c2)c1 [Compound 150, N-(2-(methylsulfonyl)ethyl)-4-morpholino-2-(4-(m-tolyl)-1H-pyrazol-1-yl)furo[3,2-d]pyrimidine-6-carboxamide]
0.0005	Cc1cccc(-c2cc(Nc3nc(N4CCOCC4)c4oc(-c5cccnc5)cc4n3)[nH]n2)c1 [Compound 30, 4-morpholino-N-[5-(m-tolyl)-1H-pyrazol-3-yl]-6-(3-pyridyl)furo[3,2-d]pyrimidin-2-amine, hydrogen chloride]
7.4	CNC(=O)c1cc2nc(Nc3cc(C(C)C)n[nH]3)nc(N3CCOCC3)c2o1 [Compound 88, 2-((5-isopropyl-1H-pyrazol-3-yl)amino)-N-methyl-4-morpholinofuro[3,2-d]pyrimidine-6-carboxamide, hydrogen chloride]
0.147	O=C(c1cc2nc(Nc3cc(-c4ccccc4)[nH]n3)nc(N3CCOCC3)c2o1)N1CCOCC1 [Compound 135, morpholino(4-morpholino-2-((5-phenyl-1H-pyrazol-3-yl)amino)furo[3,2-d]pyrimidin-6-yl)methanone]
0.162	O=C(NCC1COC1)c1cc2nc(-n3cc(-c4ccccc4)cn3)nc(N3CCOCC3)c2o1 [Compound 164, 4-morpholino-N-(oxetan-3-ylmethyl)-2-(4-phenyipyrazol-1-yl)furo[3,2-d]pyrimidine-6-carboxamide]
0.141	c1ccc(Cc2cc(Nc3nc(N4CCOCC4)c4oc(-c5ccncc5)cc4n3)[nH]n2)cc1 [Compound 73, N-(5-benzyl-1H-pyrazol-3-yl)-4-morpholino-6-(pyridin-4-yl)furo[3,2-d]pyrimidin-2-amine, hydrogen chloride]
0.06	COc1cccc(-c2cc(Nc3nc(N4CCOCC4)c4oc(-c5ccncc5)cc4n3)[nH]n2)c1 [Compound 24, N-[5-(3-methoxypheny1)-1H-pyrazol-3-yl]-4-morpholino-6-(4-pyridyl)furo[3,2-d]pyrimidin-2-amine, hydrogen chloride]
0.0019	Cc1cccc(-c2ccn(-c3nc(N4CCOCC4)c4oc(-c5nccs5)cc4n3)n2)c1 [Compound 203, 4-morpholino-2-[3-(m-tolyl)pyrazol-1-yl]-6-thiazol-2-yl-furo[3,2-d]pyrimidine]
0.835	c1ccc2c(Nc3nc(N4CCOCC4)c4oc(-c5ccncc5)cc4n3)n[nH]c2c1 [Compound 50, N-(1H-indazol-3-yl)-4-morpholino-6-(pyridin-4-yl)furo[3,2-d]pyrimidin-2-amine hydrochloride]
0.0011	c1cc(-c2cc3nc(Nc4cc(-c5ccsc5)n[nH]4)nc(N4CCOCC4)c3o2)ccn1 [Compound 76, 4-morpholino-6-(pyridin-4-yl)-N-(5-(thiophen-3-yl)-1H-pyrazol-3-yl)furo[3,2-d]pyrimidin-2-amine, hydrogen chloride]
0.0544	Clc1cc2nc(Nc3cc(-c4ccccc4)n[nH]3)nc(N3CCOCC3)c2o1 [Compound 11, 6-chloro-4-morpholino-N-(5-phenyl-1H-pyrazol-3-yl)furo[3,2-d]pyrimidin-2-amine hydrochloride]
0.0006	Cc1cccc(-c2cnn(-c3nc(N4CCOCC4)c4oc(-c5cc(C)n(CCNC(=O)CCl)n5)cc4n3)c2)c1 [Compound 198, 2-chloro-N-[2-[5-methyl-3-[4-morpholino-2-[4-(m-tolyl)pyrazol-1-yl]furo[3,2-d]pyrimidin-6-yl]pyrazol-1-yl]ethyl]acetamide]
0.069	CNC(=O)c1cc2nc(Nc3cc(-c4cccs4)n[nH]3)nc(N3CCOCC3)c2o1 [Compound 85, N-methyl-4-morpholino-2-((5-(thiophen-2-yl)-1H-pyrazol-3-yl)amino)furo[3,2-d]pyrimidine-6-carboxamide, hydrogen chloride]
3.08	Cc1cncc(-c2ccn(-c3nc(N4CCOCC4)c4oc(-c5ccccn5)cc4n3)n2)c1 [Compound 200, 2-[3-(5-methyl-3-pyridyl)pyrazol-1-yl]-4-morpholino-6-(2-pyridyl)furo[3,2-d]pyrimidine]
0.001	c1ccc(-c2cc(Nc3nc(N4CCOCC4)c4oc(-c5cccnc5)cc4n3)[nH]n2)cc1 [Compound 29, 4-morpholino-N-(5-phenyl-1H-pyrazol-3-yl)-6-(3-pyridyl)furo[3,2-d]pyrimidin-2-amine, hydrogen chloride]
0.0648	Cc1ccccc1-c1cc(Nc2nc(N3CCOCC3)c3oc(-c4ccncc4)cc3n2)[nH]n1 [Compound 2, 4-morpholino-N-[5-(o-tolyl)-1H-pyrazol-3-yl]-6-(4-pyridyl)furo[3,2-d]pyrimidin-2-amine, hydrogen chloride]

IC50 [µM]	Structure (SMILES)
0.034	c1ccc(-c2cnn(-c3nc(N4CCOCC4)c4oc(-c5ccncc5)cc4n3)c2)cc1 [Compound 41, 4-morpholino-2-(4-phenylpyrazol-1-yl)-6-(4-pyridyl)furo[3,2-d]pyrimidine, hydrogen chloride]
0.0446	c1cc(-c2cc(Nc3nc(N4CCOCC4)c4oc(-c5ccncc5)cc4n3)[nH]n2)ccn1 [Compound 6, 4-morpholino-6-(4-pyridyl)-N-[5-(4-pyridyl)-1H-pyrazol-3-yl]furo[3,2-d]pyrimidin-2-amine, hydrogen chloride]
0.369	c1cncc(-c2cc3nc(Nc4cc(-c5ccncc5)n[nH]4)nc(N4CCOCC4)c3o2)c1 [Compound 31, 4-morpholino-6-(3-pyridyl)-N-[5-(4-pyridyl)-1H-pyrazol-3-yl]furo[3,2-d]pyrimidin-2-amine, hydrogen chloride]
0.0008	Cc1cccc(-c2ccn(-c3nc(N4CCOCC4)c4oc(-c5ccn(C)n5)cc4n3)n2)c1 [Compound 189, 6-(1-methylpyrazol-3-yl)-4-morpholino-2-[3-(m-tolyl)pyrazol-1-yl]furo[3,2-d]pyrimidine]
0.195	Cc1cncc(-c2cc(Nc3nc(N4CCOCC4)c4oc(-c5ccncc5)cc4n3)[nH]n2)c1 [Compound 23, N-[5-(5-methyl-3-pyridyl)-1H-pyrazol-3-yl]-4-morpholino-6-(4-pyridyl)furo[3,2-d]pyrimidin-2-amine, hydrogen chloride]
0.027	Cc1ccnc(-c2cc(Nc3nc(N4CCOCC4)c4oc(-c5ccncc5)cc4n3)[nH]n2)c1 [Compound 21, N-[5-(4-methyl-2-pyridyl)-1H-pyrazol-3-yl]-4-morpholino-6-(4-pyridyl)fnro[3,2-d]pyrimidin-2-amine, hydrogen chloride]
0.059	Cc1cccc(-c2cc(Nc3nc(N4CCOCC4)c4oc(C5CCN(C)CC5)cc4n3)[nH]n2)c1 [Compound 33]
2.56	Cc1cccc(-c2cc(Nc3nc(N4CCOCC4)c4oc(C5CCN(C)C5)cc4n3)[nH]n2)c1 (stereo not shown) [Compound 39, 6-(1-methylpyrrolidin-3-yl)-4-morpholino-N-(3-(m-tolyl)-1H-pyrazol-5-yl)furo[3,2-d]pyrimidin-2-amine hydrochloride]
0.0066	c1ccc(-c2ccn(-c3nc(N4CCOCC4)c4oc(-c5nccs5)cc4n3)n2)cc1 [Compound 207, 4-morpholino-2-(3-phenylpyrazol-1-yl)-6-thiazol-2-yl-furo[3,2-d]pyrimidine]
0.269	Cn1ccc(-c2cc3nc(-n4cc(Br)cn4)nc(N4CCOCC4)c3o2)n1 [Compound 194, 2-(4-bromopyrazol-1-yl)-6-(1-methylpyrazol-3-yl)-4-morpholino-furo[3,2-d]pyrimidine]
0.0091	Cc1cccc(-c2ccn(-c3nc(N4CCOCC4)c4oc(-c5ncco5)cc4n3)n2)c1 [Compound 218, 4-morpholino-2-[3-(m-tolyl)pyrazol-1-yl]-6-oxazol-2-yl-furo[3,2-d]pyrimidine]
≥ 10	CN1CCCC(c2cc3nc(Nc4cc(-c5ccncc5)n[nH]4)nc(N4CCOCC4)c3o2)C1 (stereo not shown) [Compound 37]
0.116	CN1CCC(c2cc3nc(Nc4cc(-c5ccccc5)n[nH]4)nc(N4CCOCC4)c3o2)CC1 [Compound 32]
0.0009	Cc1cccc(-c2ccn(-c3nc(N4CCOCC4)c4oc(-c5cc(C)n(CCN(C)C)n5)cc4n3)n2)c1 [Compound 178, N,N-dimethyl-2-[5-methyl-3-[4-morpholino-2-[3-(m-tolyl)pyrazol-1-yl]furo[3,2-d]pyrimidin-6-yl]pyrazol-1-yl]ethanamine]
0.0008	[2H]C([2H])([2H])c1cccc(-c2ccn(-c3nc(N4CCOCC4)c4oc(-c5ccn(C)n5)cc4n3)n2)c1 [Compound 216, 6-(1-methylpyrazol-3-yl)-4-morpholino-2-[3-[3-(trideuteriomethyl)phenyl]pyrazol-1-yl]furo[3,2-d]pyrimidine]
